Consider one compound from article PMC7614683, “A small molecule PI3Kα activator for cardioprotection and neuroregeneration” (Nature, 2023).

Holding throughout (assay): SelectScreen Z-LYTE kinase activity assay (SI Table 6)
Format in all cases: biochemical

Assay [1] addresses protein kinases of the Z-LYTE panel (Homo sapiens, UniProt P07947). The method in brief: (§1)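 Compound 1938 counterscreened at 1 μM against 133 protein and 7 lipid kinases in the SelectScreen panel, using Adapta, LanthaScreen binding and Z-LYTE formats as applicable.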
Assay [2] addresses T1, protein kinases of the Z-LYTE panel (Homo sapiens, UniProt Q02156).
T1 sequence (Q02156 1-737): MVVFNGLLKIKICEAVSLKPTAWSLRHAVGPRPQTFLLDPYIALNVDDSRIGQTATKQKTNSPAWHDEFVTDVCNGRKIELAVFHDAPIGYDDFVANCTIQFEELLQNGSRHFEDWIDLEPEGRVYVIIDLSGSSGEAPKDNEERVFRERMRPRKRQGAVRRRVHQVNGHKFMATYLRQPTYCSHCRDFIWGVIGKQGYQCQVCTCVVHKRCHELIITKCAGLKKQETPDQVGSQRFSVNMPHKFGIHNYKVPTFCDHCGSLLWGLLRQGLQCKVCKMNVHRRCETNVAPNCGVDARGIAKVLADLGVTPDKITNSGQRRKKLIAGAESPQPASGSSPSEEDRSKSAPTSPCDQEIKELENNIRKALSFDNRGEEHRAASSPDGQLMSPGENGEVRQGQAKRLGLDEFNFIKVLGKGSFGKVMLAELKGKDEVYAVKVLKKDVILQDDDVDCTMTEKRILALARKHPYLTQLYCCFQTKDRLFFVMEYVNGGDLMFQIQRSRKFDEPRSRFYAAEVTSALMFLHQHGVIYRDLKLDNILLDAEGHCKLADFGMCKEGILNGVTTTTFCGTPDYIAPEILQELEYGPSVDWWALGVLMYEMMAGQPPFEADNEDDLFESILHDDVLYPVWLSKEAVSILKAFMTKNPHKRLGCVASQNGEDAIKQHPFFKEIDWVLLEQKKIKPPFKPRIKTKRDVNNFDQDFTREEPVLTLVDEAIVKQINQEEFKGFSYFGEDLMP
In a few lines:
as §1

Assay [3] concerns the target T2, protein kinases of the Z-LYTE panel (Homo sapiens, UniProt Q06418).
T2 sequence (Q06418 41-890): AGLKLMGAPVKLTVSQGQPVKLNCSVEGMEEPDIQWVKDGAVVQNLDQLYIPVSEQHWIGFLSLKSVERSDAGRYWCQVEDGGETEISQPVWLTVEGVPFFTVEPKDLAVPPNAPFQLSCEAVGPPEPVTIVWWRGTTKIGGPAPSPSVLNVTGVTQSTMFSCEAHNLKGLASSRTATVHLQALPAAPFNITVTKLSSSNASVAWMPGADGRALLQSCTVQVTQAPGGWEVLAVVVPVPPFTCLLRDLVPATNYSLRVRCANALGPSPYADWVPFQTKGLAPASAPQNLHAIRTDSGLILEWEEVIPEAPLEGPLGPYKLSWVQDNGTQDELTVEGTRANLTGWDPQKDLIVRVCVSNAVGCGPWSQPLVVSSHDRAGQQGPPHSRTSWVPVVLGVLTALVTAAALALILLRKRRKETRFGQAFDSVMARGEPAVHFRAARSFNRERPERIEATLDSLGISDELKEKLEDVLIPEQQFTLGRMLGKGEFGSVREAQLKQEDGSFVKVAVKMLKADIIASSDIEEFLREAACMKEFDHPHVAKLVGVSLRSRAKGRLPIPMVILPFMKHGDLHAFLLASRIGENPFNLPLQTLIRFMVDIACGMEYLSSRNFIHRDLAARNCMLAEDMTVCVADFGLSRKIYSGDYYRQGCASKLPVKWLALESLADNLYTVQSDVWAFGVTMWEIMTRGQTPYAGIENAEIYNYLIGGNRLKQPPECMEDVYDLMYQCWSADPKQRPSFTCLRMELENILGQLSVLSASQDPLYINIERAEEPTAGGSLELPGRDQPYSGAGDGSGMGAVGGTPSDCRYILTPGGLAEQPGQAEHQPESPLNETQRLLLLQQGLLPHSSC
The method in brief: as §1

The target in assay [4] is protein kinases of the Z-LYTE panel (Homo sapiens, UniProt O75116). The method in brief:
as §1

Read-outs that look alike come from different tables or passages of the source.

Sequence of protein kinases of the Z-LYTE panel (Homo sapiens, UniProt P07947) (P07947 whole entry): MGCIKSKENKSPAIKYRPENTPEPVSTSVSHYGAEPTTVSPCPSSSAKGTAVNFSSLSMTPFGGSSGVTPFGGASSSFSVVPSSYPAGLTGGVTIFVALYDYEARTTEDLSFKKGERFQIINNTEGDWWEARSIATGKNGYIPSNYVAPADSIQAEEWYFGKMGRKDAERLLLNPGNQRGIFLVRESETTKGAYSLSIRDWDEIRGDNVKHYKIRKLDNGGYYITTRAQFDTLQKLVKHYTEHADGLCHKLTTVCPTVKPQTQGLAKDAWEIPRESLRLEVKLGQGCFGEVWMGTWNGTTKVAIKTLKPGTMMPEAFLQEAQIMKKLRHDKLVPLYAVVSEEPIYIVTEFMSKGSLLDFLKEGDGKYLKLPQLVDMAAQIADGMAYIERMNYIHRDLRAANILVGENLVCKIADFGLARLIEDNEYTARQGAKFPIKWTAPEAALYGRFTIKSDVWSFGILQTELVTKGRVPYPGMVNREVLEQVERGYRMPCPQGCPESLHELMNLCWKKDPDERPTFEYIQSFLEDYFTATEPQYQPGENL
Sequence of protein kinases of the Z-LYTE panel (Homo sapiens, UniProt O75116) (O75116 whole entry): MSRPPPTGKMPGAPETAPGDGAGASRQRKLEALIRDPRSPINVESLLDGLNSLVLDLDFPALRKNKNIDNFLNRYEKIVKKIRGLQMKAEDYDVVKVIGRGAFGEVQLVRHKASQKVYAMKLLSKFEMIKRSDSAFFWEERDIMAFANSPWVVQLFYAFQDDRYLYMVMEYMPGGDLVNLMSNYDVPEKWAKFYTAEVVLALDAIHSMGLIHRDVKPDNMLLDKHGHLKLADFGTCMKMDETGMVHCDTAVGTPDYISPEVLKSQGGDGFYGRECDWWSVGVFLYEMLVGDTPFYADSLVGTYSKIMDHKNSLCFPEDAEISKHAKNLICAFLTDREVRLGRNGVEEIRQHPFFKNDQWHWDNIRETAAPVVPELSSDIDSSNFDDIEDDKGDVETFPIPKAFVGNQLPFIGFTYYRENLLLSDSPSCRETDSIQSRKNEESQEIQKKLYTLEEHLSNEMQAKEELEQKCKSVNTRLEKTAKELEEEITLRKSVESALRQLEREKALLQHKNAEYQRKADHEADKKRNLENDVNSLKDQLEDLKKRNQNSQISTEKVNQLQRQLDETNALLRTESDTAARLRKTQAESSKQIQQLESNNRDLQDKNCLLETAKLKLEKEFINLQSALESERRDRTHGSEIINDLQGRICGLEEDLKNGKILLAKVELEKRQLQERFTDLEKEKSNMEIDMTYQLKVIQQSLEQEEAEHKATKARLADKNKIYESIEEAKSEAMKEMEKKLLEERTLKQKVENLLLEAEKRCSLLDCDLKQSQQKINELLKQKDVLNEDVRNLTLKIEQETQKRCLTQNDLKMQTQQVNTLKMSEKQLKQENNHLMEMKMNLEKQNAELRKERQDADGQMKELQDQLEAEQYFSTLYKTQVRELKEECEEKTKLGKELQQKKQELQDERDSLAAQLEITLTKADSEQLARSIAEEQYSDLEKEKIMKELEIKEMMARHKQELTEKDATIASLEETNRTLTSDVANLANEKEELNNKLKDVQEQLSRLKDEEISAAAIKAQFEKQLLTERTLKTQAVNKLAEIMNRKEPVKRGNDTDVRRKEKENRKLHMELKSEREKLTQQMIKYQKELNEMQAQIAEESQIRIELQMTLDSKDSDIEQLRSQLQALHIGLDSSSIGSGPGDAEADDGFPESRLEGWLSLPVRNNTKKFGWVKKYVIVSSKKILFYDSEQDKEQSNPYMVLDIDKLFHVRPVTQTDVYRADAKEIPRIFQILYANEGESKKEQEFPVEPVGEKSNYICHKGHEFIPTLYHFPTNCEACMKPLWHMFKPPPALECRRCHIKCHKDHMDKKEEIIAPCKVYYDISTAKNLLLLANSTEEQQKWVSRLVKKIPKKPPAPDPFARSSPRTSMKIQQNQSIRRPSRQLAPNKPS

The term inhibition denotes the change of the read-out against control, counted positive when it falls. For the compound `CCN1CCN(c2ccc(Nc3cc(Nc4cccc5c4N(C(C)=O)CC5)ccn3)cc2)CC1` [Compound 1938], the inhibition at 1 µM in assay [1] (read-out: % Inhibition Point 1) is 27%; in assay [1] (read-out: % Inhibition Point 2) it was 30%; in assay [1] (read-out: % Inhibition mean), 29%; in assay [2] (read-out: % Inhibition Point 1) it was 1%; in assay [2] (read-out: % Inhibition Point 2) it was 2%; in assay [2] (read-out: % Inhibition mean), 1.57%. Also, the inhibition at 1 µM is 8% in assay [3] (read-out: % Inhibition Point 1); 7.56% in assay [3] (read-out: % Inhibition Point 2); 7.59% in assay [3] (read-out: % Inhibition mean); 1.58% in assay [4] (read-out: % Inhibition Point 1); 0.0356% in assay [4] (read-out: % Inhibition Point 2); 0.807% in assay [4] (read-out: % Inhibition mean).
